Experimental data published in ChEMBL document CHEMBL5230129, “Antibacterial activities with the structure-activity relationship of coumarin derivatives” (2020).
≈ marks a conversion by molar mass, not a printed value.

Columns and labels:
Format in all cases: functional
Helicobacter pylori = experiment: Antibacterial activity against Helicobacter pylori ATCC43504 assessed as inhibition of bacterial growth incubated for 72 hrs by micro-dilution broth assay
Pseudomonas aeruginosa [1] = experiment: Antibacterial activity against Pseudomonas aeruginosa assessed as zone of inhibition incubated for 24 to 48 hrs by agar well diffusion assay; settings: time 24-48 hrs
Staphylococcus aureus [2] = experiment: Antibacterial activity against Staphylococcus aureus assessed as zone of inhibition incubated for 24 to 48 hrs by agar well diffusion assay; settings: time 24-48 hrs
Staphylococcus aureus [3] = experiment: Antibacterial activity against Staphylococcus aureus MTCC 3160 assessed as inhibition of bacterial growth by broth micro dilution assay
Pseudomonas aeruginosa [4] = experiment: Antibacterial activity against Pseudomonas aeruginosa MTCC 1034 assessed as inhibition of bacterial growth by broth micro dilution assay
Klebsiella pneumoniae = experiment: Antibacterial activity against Klebsiella pneumoniae assessed as zone of inhibition incubated for 24 hrs by disk diffusion assay
Staphylococcus aureus [5] = experiment: Antibacterial activity against Staphylococcus aureus ATCC 25923 assessed as zone of inhibition incubated for 24 hrs by paper disk method
Escherichia coli [6] = experiment: Antibacterial activity against Escherichia coli ATCC 25922 assessed as zone of inhibition incubated for 24 hrs by paper disk method
Bacillus subtilis [7] = experiment: Antibacterial activity against Bacillus subtilis ATCC 10876 assessed as zone of inhibition incubated for 24 hrs by paper disk method
Pseudomonas aeruginosa [8] = experiment: Antibacterial activity against Pseudomonas aeruginosa ATCC 27853 assessed as zone of inhibition incubated for 24 hrs by paper disk method
Escherichia coli [9] = experiment: Antibacterial activity against Escherichia coli MTCC 739 assessed as inhibition of bacterial growth incubated for 24 hrs by spectrophotometric assay
Pseudomonas fluorescens = experiment: Antibacterial activity against Pseudomonas fluorescens NCIM 2173 assessed as inhibition of bacterial growth incubated for 24 hrs by serial twofold dilution assay
[10] = system: Sphingomonas paucimobilis; experiment: Antibacterial activity against Flavobacterium devorans ATCC 10829 assessed as inhibition of bacterial growth incubated for 24 hrs by serial twofold dilution assay
Escherichia coli [11] = experiment: Antibacterial activity against Escherichia coli NCIM 2256 assessed as inhibition of bacterial growth incubated for 24 hrs by serial twofold dilution assay
Bacillus subtilis [12] = experiment: Antibacterial activity against Bacillus subtilis assessed as inhibition of bacterial growth relative to control
Escherichia coli [13] = experiment: Antibacterial activity against Escherichia coli assessed as inhibition of bacterial growth relative to control
Pseudomonas aeruginosa [14] = experiment: Antibacterial activity against Pseudomonas aeruginosa assessed as zone of inhibition incubated for 24 hrs by well-diffusion method
Micrococcus luteus = experiment: Antibacterial activity against Micrococcus luteus assessed as zone of inhibition incubated for 24 hrs by well-diffusion method
Staphylococcus aureus [15] = experiment: Antibacterial activity against Staphylococcus aureus assessed as zone of inhibition incubated for 24 hrs by well-diffusion method
Escherichia coli [16] = experiment: Antibacterial activity against Escherichia coli assessed as zone of inhibition incubated for 24 hrs by well-diffusion method
Escherichia coli [17] = experiment: Antibacterial activity against Escherichia coli MTCC 40 assessed as zone of inhibition incubated for 24 hrs by well-plate method
Pseudomonas aeruginosa [18] = experiment: Antibacterial activity against Pseudomonas aeruginosa assessed as inhibition of bacterial growth incubated for 24 hrs by broth microdilution assay
Staphylococcus aureus [19] = experiment: Antibacterial activity against Staphylococcus aureus MTCC 740 assessed as zone of inhibition incubated overnight by Kirby-Bauer disc diffusion method
Escherichia coli [20] = experiment: Antibacterial activity against Escherichia coli MTCC 1586 assessed as zone of inhibition incubated overnight by Kirby-Bauer disc diffusion method
Pseudomonas = experiment: Antibacterial activity against Pseudomonas assessed as zone of inhibition
Staphylococcus aureus [21] = experiment: Antibacterial activity against Staphylococcus aureus assessed as inhibition of bacterial growth by broth micro dilution assay
Escherichia coli [22] = experiment: Antibacterial activity against Escherichia coli MTCC 443 assessed as inhibition of bacterial growth incubated for 18 to 20 hrs by broth microdilution assay; settings: time 18-20 hrs
Staphylococcus aureus [23] = experiment: Antibacterial activity against Staphylococcus aureus assessed as inhibition of bacterial growth by broth dilution assay
Staphylococcus aureus [24] = experiment: Antibacterial activity against Staphylococcus aureus MTCC 96 assessed as inhibition of bacterial growth incubated for 18 to 20 hrs by broth microdilution assay; settings: time 18-20 hrs
Bacillus subtilis [25] = experiment: Antibacterial activity against Bacillus subtilis assessed as inhibition of bacterial growth by broth dilution assay
Bacillus = experiment: Antibacterial activity against Bacillus assessed as inhibition of bacterial growth by broth micro dilution assay
Staphylococcus aureus [26] = experiment: Antibacterial activity against Staphylococcus aureus ATCC-29213 assessed as inhibition of bacterial growth incubated for 16 hrs by agar-well diffusion assay

## COc1ccc2c(CC(=O)O)cc(=O)oc2c1
Helicobacter pylori
  MIC: 49 µg/mL (≈ 209 µM)

## COc1cccc(/C=C/C(=O)/C=C/c2ccc(COc3cn(CCOc4cc(=O)oc5ccccc45)nn3)cc2OC)c1
Pseudomonas aeruginosa [1]
  inhibition zone (IZ): 7 mm
Staphylococcus aureus [2]
  inhibition zone (IZ): 8 mm

## Cc1cc(=O)oc2c1=CCC(O)C=2C1C(C#N)=C(N)Oc2c1c(=O)oc1ccccc21 (centres undefined)
Staphylococcus aureus [3]
  MIC: 0.4 µg/mL (≈ 0.961 µM)
Pseudomonas aeruginosa [4]
  MIC: 1.6 µg/mL (≈ 3.84 µM)

## GENTAMICIN
Klebsiella pneumoniae
  inhibition zone (IZ): 16 mm

## NCC[C@H](O)C(=O)N[C@@H]1C[C@H](N)[C@@H](O[C@H]2O[C@H](CN)[C@@H](O)[C@H](O)[C@H]2O)[C@H](O)[C@H]1O[C@H]1O[C@H](CO)[C@@H](O)[C@H](N)[C@H]1O [AMIKACIN]
Staphylococcus aureus [5]
  inhibition zone (IZ): 20 mm
Escherichia coli [6]
  inhibition zone (IZ): 17 mm
Bacillus subtilis [7]
  inhibition zone (IZ): 18 mm
Pseudomonas aeruginosa [8]
  inhibition zone (IZ): 17 mm

## CC1(C)S[C@@H]2[C@H](NC(=O)[C@H](N)c3ccccc3)C(=O)N2[C@H]1C(=O)O [AMPICILLIN]
Escherichia coli [9]
  MIC: 6.25 µg/mL (≈ 17.9 µM)
Pseudomonas fluorescens
  MIC: 4 µg/mL (≈ 11.4 µM)
[10]
  MIC: 4 µg/mL (≈ 11.4 µM)
Escherichia coli [11]
  MIC: 4 µg/mL (≈ 11.4 µM)

## COC(=O)c1nnn(CC(=O)c2cc3cc(C)ccc3oc2=O)c1C(=O)OC
Bacillus subtilis [12]
  inhibition (INH): 83.3%
Escherichia coli [13]
  inhibition (INH): 83.3%

## Cc1cc(=O)oc2cc(OCc3nnc(Nc4ccc(Br)cc4)s3)ccc12
Klebsiella pneumoniae
  inhibition zone (IZ): 16 mm

## CO/N=C(\C(=O)N[C@@H]1C(=O)N2C(C(=O)O)=C(COC(C)=O)CS[C@H]12)c1csc(N)n1 [CEFOTAXIME]
Pseudomonas aeruginosa [14]
  inhibition zone (IZ): 11 mm
Micrococcus luteus
  inhibition zone (IZ): 11 mm
Staphylococcus aureus [15]
  inhibition zone (IZ): 11 mm
Escherichia coli [16]
  inhibition zone (IZ): 11 mm

## O=c1oc2ccc3ccccc3c2cc1-c1csc(N/N=C/c2cn(-c3ccccc3)nc2-c2cc3ccccc3oc2=O)n1
Escherichia coli [17]
  inhibition zone (IZ): 21 mm

## Cc1cc(=O)oc2cc(OCc3nnc(Nc4ccc(Cl)cc4)s3)ccc12
Klebsiella pneumoniae
  inhibition zone (IZ): 15 mm

## C[C@H]1COc2c(N3CCN(C)CC3)c(F)cc3c(=O)c(C(=O)O)cn1c23.C[C@H]1COc2c(N3CCN(C)CC3)c(F)cc3c(=O)c(C(=O)O)cn1c23.O [LEVOFLOXACIN]
Pseudomonas aeruginosa [18]
  MIC: 3.12 µg/mL

## COc1cc(COc2cn(CCOc3cc(=O)oc4ccccc34)nn2)ccc1/C=C/C(=O)/C=C/c1ccc(OC)c(OC)c1
Pseudomonas aeruginosa [1]
  inhibition zone (IZ): 7 mm
Staphylococcus aureus [2]
  inhibition zone (IZ): 8 mm

## COC(=O)c1nnn(CC(=O)c2cc3c(ccc4ccccc43)oc2=O)c1C(=O)OC
Bacillus subtilis [12]
  inhibition (INH): 83.3%
Escherichia coli [13]
  inhibition (INH): 83.3%

## COc1cc(COc2cn(CCOc3cc(=O)oc4ccccc34)nn2)ccc1/C=C/C(=O)/C=C/c1cc(OC)c(OC)c(OC)c1
Staphylococcus aureus [2]
  inhibition zone (IZ): 7 mm

## CC[N+](CC)(CC)CCCCCCCCNCc1cn(Cc2cc(=O)oc3c(OC)c4c(cc23)CCC(C)(C)O4)nn1.[Br-]
Staphylococcus aureus [19]
  inhibition zone (IZ): 0 mm
Escherichia coli [20]
  inhibition zone (IZ): 2 mm

## Cc1cc(=O)oc2cc(O)ccc12 [HYMECROMONE]
Helicobacter pylori
  MIC: 50 µg/mL (≈ 284 µM)

## O=C(O)c1cn(C2CC2)c2cc(N3CCNCC3)c(F)cc2c1=O [CIPROFLOXACIN]
Pseudomonas
  inhibition zone (IZ): 7.5 mm
Bacillus subtilis [12]
  inhibition (INH): 100%
Staphylococcus aureus [21]
  MIC: 2 µg/mL (≈ 6.04 µM)
Escherichia coli [22]
  MIC: 25 µg/mL (≈ 75.4 µM)
Staphylococcus aureus [23]
  MIC: 2 µg/mL (≈ 6.04 µM)
Escherichia coli [13]
  inhibition (INH): 100%
Pseudomonas aeruginosa [18]
  MIC: 49 µg/mL (≈ 148 µM)
Staphylococcus aureus [24]
  MIC: 50 µg/mL (≈ 151 µM)
Bacillus subtilis [25]
  MIC: 2 µg/mL (≈ 6.04 µM)
Staphylococcus aureus [3]
  MIC: 1.6 µg/mL (≈ 4.83 µM)
Bacillus
  MIC: 2 µg/mL (≈ 6.04 µM)
Staphylococcus aureus [26]
  MIC: 10 µg/mL (≈ 30.2 µM)
Pseudomonas aeruginosa [4]
  MIC: 1.6 µg/mL (≈ 4.83 µM)

## O=c1oc2ccccc2c(O)c1C(c1c(Cl)cccc1Cl)c1c(O)c2ccccc2oc1=O
Pseudomonas aeruginosa [14]
  inhibition zone (IZ): 10 mm
Micrococcus luteus
  inhibition zone (IZ): 10 mm
Staphylococcus aureus [15]
  inhibition zone (IZ): 10 mm
Escherichia coli [16]
  inhibition zone (IZ): 10 mm
